Source: patent US6372799B1, “Non-sedating diphenhydramine metabolites” (Bridge Pharma, Inc., priority 1998, dated 2002)

Tested on: physostigmine-induced lethality in mice
Assay: Sedative effects in vivo, physostigmine-induced lethality test
Details: result in words, figures not given
Protocol: The physostigmine-induced lethality test is being used in the present studies. This test is a modification of the sedation test technique reported by VILLANI et al., in U.S. Pat. No. 4,659,716. In short, physostigmine (1.9 mg/kg s.c.) produces 90-100% lethality when given to grouped mice with 10 animals in each plastic cage (approx. 11×26×13 cm). Mice administered a sedating agent, such as for example a sedative antihistamine prior to physostigmine are protected and survive. In the present study, test compounds are administered orally 60 minutes prior to physostigmine. The number of survivors is counted 30 minutes after physostigmine administration.

Structure (SMILES): CN(C)CCOC(c1ccccc1)c1ccccc1 [diphenhydramine, DIPHENHYDRAMINE]
- sedative activity / sedative side effects: profound sedative side effects
